Values quoted from earlier work as cited in patent US11324771B2 (priority 2020, dated 2022).
Read-outs that look alike come from different tables or passages of the source.

Assays:
[1] = not given; remark: listed apart in the source

Substance: cobinamide dihydroxide dihydrogen phosphate (ester), mono (inner salt), 3′-ester with 5,6-dimethyl-1-α-D-ribofuranosyl-1H-benzimidazole [Hydroxocobalamin]
- solubility in acetone (acetone): practically insoluble
- solubility in benzene (benzene): practically insoluble
- solubility in chloroform (chloroform): practically insoluble
- solubility in dimethyl sulfoxide (dimethyl sulfoxide): freely soluble
- solubility in diethyl ether / ether (ether): practically insoluble
- solubility in ethyl acetate (ethyl acetate): practically insoluble
- solubility in methanol (methanol): freely soluble
- solubility in water (water): freely soluble
- solubility in aqueous buffer ([1]; pH 1.2): highly soluble
- solubility in aqueous buffer ([1]; pH 4.5): highly soluble
- solubility in aqueous buffer ([1]; pH 6.8): < 400 µg/mL
- solubility in aqueous buffer ([1]; pH 7.5): < 400 µg/mL
